Measured values reported in patent CN109134566A, “一种1/20水利巴韦林化合物” (Individual, priority 2017, dated 2019).

Experiments:
Assay type in all cases: physicochemical
[1] = Accelerated stability of compressed tablets (试验例3 压片稳定性); details: round tablets 0.5 g/tablet, 40℃±2℃, 6 months, sampled at 0, 1, 2, 3, 6 months
[2] = Freeze-drying test, water before and after (试验例2 冷冻干燥试验); details: 0.25 g/vial, vacuum, -40℃, 24 h
[3] = Accelerated stability test of the bulk compound (试验例1 稳定性考察); details: 40℃±2℃, 6 months, sampled at 0, 1, 2, 3, 6 months

NC(=O)c1ncn([C@@H]2O[C@H](CO)[C@@H](O)[C@H]2O)n1 [实施例1, 1/20水利巴韦林化合物]
未发生明显变化: change in water content of compressed tablets (accelerated test) ([1]; 1/20水) | change in water content after freeze-drying ([2]; 1/20水) | change in water content (accelerated test) ([3]; 1/20水)

NC(=O)c1ncn([C@@H]2O[C@H](CO)[C@@H](O)[C@H]2O)n1 [对比例1, 利巴韦林]
明显降低: change in water content of compressed tablets (accelerated test) [1] | change in water content after freeze-drying [2] | change in water content (accelerated test) [3]
